Test results taken from US9023853B2, “Janus kinase 2 (JAK2) inhibitor for the treatment of lupus” (Cephalon, Inc., priority 2010, dated 2015).

How the values were obtained:
Assay type in all cases: in vivo, mouse
CXCL9/MIG = test: Serum CXCL9/MIG in NZM mice
Protocol: (§1) For the processing of serum samples for cytokine analysis, frozen plasma at −80° C. was thawed on ice, vortexed, and centrifuged for 10 minutes to remove debris and aggregates. A total of 25-50 μL of serum was used for Luminex® assays following the manufacturer's instructions. Ten different mouse cytokines were measured using the mouse cytokine 10-plex bead kit (Invitrogen, Carlsbad, Calif., no. LMC0001). Briefly, filter plates (Millipore, Billerica, Mass., no. MAIPSWU10), were pre-wet with 200 μL of wash solution (kit component) and 25 μL of beads were added per well. […]
(§2) Age mated, female, NZM or NZW/LacJ, mice were matured for the study of lupus nephritis for a total of 7 months or 210 days at which time urine was collected for proteinuria detection. Mice with 0.5-1.0 mg/ml of urine protein as determined by an optical density-based total protein precipitation assay and cross-checked for 30-300 mg/dl of protein as determined by a stick assay were considered proteinuria positive and selected for study entry. […] End-stage lupus nephritis was evaluated by histopathology and scored by a board certified pathologist for the assessment of total renal damage in diseased animals using the scoring method described by Smith et al (Smith, Dong et al. 2007). […]

CXCL10/IP-10 = test: Serum CXCL10/IP-10 in NZM mice
Protocol: as §1, §2

IL-17A = test: Serum IL-17A in NZM mice
Protocol: as §1, §2

MRL/lpr mice = test: Lymphomegaly, splenomegaly and spleen leukocyte counts in MRL/lpr lupus model; details: for total spleen leukocyte counts compared to vehicle: p<0.05; for mice without lymphomegaly: vehicle 0%
Protocol: Six week old lupus-prone, female, MRL/lpr (Jackson Labs, #000485) and non-lupus prone control MRL/MpJ (Jackson Labs, #000486) mice were obtained from Jackson Laboratories (Bar Harbor, Me.) at 6-weeks of age. Spontaneous SLE-prone NZBWF1/J (NZM) (catalog no. 100008) female mice and non-lupus prone (within time from of experiment) NZW/LacJ (catalog no. 001058) female mice were obtained from Jackson Laboratories (Bar Harbor, Me.) at 15-weeks of age. All mice were maintained on a […] light/dark cycle, with food and water available ad libitum. All experimental animal procedures were approved by and in accordance to the regulations of the Institutional Animal Care and Use Committee (IACUC) of Cephalon, Inc; approved IACUC protocol #03-040 and #03-03-041. […] Due to this impaired tolerance mechanism, a percentage of all T and B cells that enter the periphery have a high likelihood of responding to self protein/tissues and thus initiate autoimmunity early in life. The MRL/lpr model mice develop several chronic inflammatory disease-like symptoms that are characteristic of early and late lupus including the generation of anti-nuclear antibodies, arthritis, dermatological manifestations, immunocomplex-mediated glomerulonephritis leading to proteinuria and eventual death. Lesser characterized phenomenon are CNS and cardiac manifestations, both of which are more common in humans. […] Mortality is higher in the females and occurs around 25 weeks of age, renal disease includes glomerulonephritis, glomerular infiltrates, sclerosis and vasculitis. Both splenomegaly and lymphomegaly associated with dermatitis can also be observed. […] Mice were tracked on an individual basis.

CCL3/MIP-1α = test: Serum CCL3/MIP-1α in NZM mice
Protocol: as §1, §2

IL-13 = test: Serum IL-13 in NZM mice
Protocol: as §1, §2

IL-6 = test: Serum IL-6 in NZM mice
Protocol: as §1, §2

Structure (SMILES): CN1CCN(c2cccc(Nc3nc4c(-c5ccc(S(C)(=O)=O)cc5)cccn4n3)c2)CC1 [COMPOUND A, [8-(4-methanesulfonyl-phenyl)-[1,2,4]triazolo[1,5-a]pyridin-2-yl]-[3-(4-methyl-piperazin-1-yl)-phenyl]-amine]
- serum CXCL9/MIG decrease compared to vehicle (CXCL9/MIG; 55 mg/kg): 83.7%
- serum CXCL9/MIG decrease compared to vehicle (CXCL9/MIG; 100 mg/kg): 85.7%
- serum CXCL10/IP-10 decrease compared to vehicle (CXCL10/IP-10; 55 mg/kg): 47.3%
- serum CXCL10/IP-10 decrease compared to vehicle (CXCL10/IP-10; 100 mg/kg): 80.0%
- serum IL-17A decrease compared to vehicle (IL-17A; 55 mg/kg): 79.1%
- serum IL-17A decrease compared to vehicle (IL-17A; 100 mg/kg): 86.2%
- spleen mass decrease vs. vehicle (MRL/lpr mice; 55 mg/kg p.o. b.i.d.): 49.4%
- total spleen leukocyte counts compared to vehicle (MRL/lpr mice; 55 mg/kg p.o. b.i.d.): reduced total leukocyte counts
- mice without lymphomegaly (MRL/lpr mice; 55 mg/kg p.o. b.i.d.): 100%
- spleen mass decrease vs. vehicle (MRL/lpr mice; 100 mg/kg p.o. b.i.d.): 74.1%
- spleen mass relative to non-lupus control animal (MRL/Mp; 98 mg) (MRL/lpr mice; 100 mg/kg p.o. b.i.d.): decreased spleen mass to the level of a non-lupus control animal
- total spleen leukocyte counts compared to vehicle (MRL/lpr mice; 100 mg/kg p.o. b.i.d.): reduced total leukocyte counts
- mice without lymphomegaly (MRL/lpr mice; 100 mg/kg p.o. b.i.d.): 100%
- serum CCL3/MIP-1α decrease compared to vehicle (CCL3/MIP-1α; 55 mg/kg): 94.5%
- serum CCL3/MIP-1α decrease compared to vehicle (CCL3/MIP-1α; 100 mg/kg): 94.5%
- serum IL-13 decrease compared to vehicle (IL-13; 55 mg/kg): 86.2%
- serum IL-13 decrease compared to vehicle (IL-13; 100 mg/kg): 79.5%
- serum IL-6 decrease compared to vehicle (IL-6; 55 mg/kg): 98.2%
- serum IL-6 decrease compared to vehicle (IL-6; 100 mg/kg): 97.0%
